In series [1] the test system is B cells (as target cells). Put plainly: LDH assay, murine cytotoxic CD4+ T cells (OT-II) with B cells as target cells. The following applies: 5 μM, 24 h prior to co-culture, vs carrier control. It counts as cell-based. On the procedure: FIG. 8. Gli1 mediates specific cell killing by murine cytotoxic CD4+ T cells. Cytotoxic CD4+ T cells were generated from OT-II mice and treated with 5 μM Gli1/Gli2 inhibitor GANT61 (grey) or carrier control (black) for 24 hours before an LDH assay was performed to assess specific cell killing. Data is from n=3 independent experiments.
Experiments 1, 2, 3 and 4 identify Gli1 transcription as a mediator of specific cell killing in CD8+ CTLs and in NK cells, in humans and in mice. To investigate whether Gli1 also plays a role in driving the effector function of CD4+ T cells, cells were isolated from the spleens of OT-II mice and CTLs were generated. Cells were treated using GANT61 at a concentration of 5 μM or carrier control, 24 h prior to being co-cultured with B cells (as target cells) at the effector:target ratios indicated in FIG. 8.

Another series relates to K562 target cells. Put plainly: Flow-cytometry based killing assay, human Vγ9Vδ2 gammadelta T cells with K562 target cells. The class given is cell-based. The conditions noted are these: pre-treated overnight with GANT61, co-culture 24 h. On the procedure:
FIG. 12. GLI1 is important for tumour cell killing of human Vγ9Vδ2 gammadelta T cells and treatment with L-type voltage gated Ca2+ channel agonist FPL 64176 increases killing capacity. PBMCs were isolated from Buffy Coats of healthy donors using SepMate PBMC Isolation Tubes. Vγ9Vδ2 expansion was induced by plating PBMCs at 1×10^6 concentration with 1 μM of Zoledronate in the presence of 100 IU/mL IL-2 and 120 IU/mL IL-15. Cells were split every 2-3 days from day 6 until day 20. Killing assays were conducted between day 16-20. (A) Vγ9Vδ2 T lymphocytes were incubated with Gli1/2 inhibitor GANT61 or EToH (carrier control) overnight and subsequently co-cultured with K562 target cells for 24 h at the indicated effector to target ratios and subjected to a flow-cytometry based killing assay. n=1 individual donor. (B) Vγ9Vδ2 cells were pre-incubated with 10 μM FPL 64176 or EToH (carrier control) before being co-cultured with K562 target cells at indicated effector to target ratios and subjected to a flowcytometric cytotoxicity assay in the presence of 10 μM FPL 64176 or EToH (carrier control). Killing was assessed after 24 hours. Tumour cell killing normalised to carrier treated cells at a 10:1 effector:target ratio. n=4 individual healthy donors from 2 independent experiments. […]

In series [2] the test system is RMA/S tumour cells. Description: LDH killing assay, murine NK cells with NK-sensitive RMA/S cells. The class given is cell-based. The following applies: 5 μM GANT61 vs carrier control. As for the experimental part:
(§1) FIG. 4. Gli1 is important for specific tumour cell killing by murine NK cells. (A) NK cells were isolated from WT C57BL/6 mice and were treated using either the Gli1/Gli2 inhibitor GANT61 (squares) or carrier control (circles). LDH killing assays (left panel) and VITAL assays (right panel) were performed to assess specific cell killing of NK-sensitive RMA/S tumour cells. Left panel: Representative data of n=3 independent experiments. Right panel: data from 2 individual mice per genotype. (B) To specifically investigate the contribution of Gli1 towards NK cell effector function, LDH killing assays (left panel) and VITAL assays (right panel) were performed using NK cells isolated from both WT (circles) and Gli1 knockout (KO, squares) mice. Left panel: representative data from n=2 independent experiments. Right panel: data from 2 individual mice per genotype.
(§2) It was hypothesised that the therapeutic effect of L-type Cav channel agonists may be conserved between CD8+ T and NK cells. To investigate this hypothesis, NK cells were isolated from spleens of C57BL/6 wildtype mice using a MACS negative isolation protocol, and expanded in vitro for 7 days in the presence of 500 IU/L IL-2. […]

Another series has as its system NK cells. Put plainly: Flow cytometric analysis of Granzyme B and IFNγ in NK cells. The class given is cell-based, mice. The conditions noted are these: 10 μM, overnight (~18 hours). As for the experimental part: FIG. 10. GzmB content and IFNγ secretion are unaffected by Gli inhibition in NK cells. NK cells were isolated from C57BL/6 mice and treated with 10 μM GANT61 or carrier control (EtOH) overnight (˜18 hours) prior to analysis of intracellular granzyme B (GzmB) and IFNγ expression by flow cytometry. (A) Representative flow cytometry plots. (B) Quantification of flow cytometry plots. Data is from n=2 mice, 1 independent experiment.
(§3) To investigate this further, the effect of GANT61 inhibition on Granzyme B and IFNγ secretion was investigated. Cytotoxic CD4+ cells were generated from OT-II mice and treated with 5 μM GANT61 or carrier control on day 7 for 24 h prior to flow cytometric analysis of Granzyme B (GzmB) and IFNγ levels on day 8. NK cells were isolated from C57BL/6 mice and treated with 10 μM GANT61 or carrier control (EtOH) overnight (˜18 hours) prior to analysis of intracellular granzyme B (GzmB) and IFNγ expression by flow cytometry. In both cytotoxic CD4+ cells (FIG. 9) and NK cells (FIG. 10), the GzmB content and IFNγ secretion were unaffected by Gli inhibition.

A further series relates to cytotoxic CD4+ T cells. Put plainly: Flow cytometric analysis of Granzyme B and IFNγ in cytotoxic CD4+ T cells. It counts as cell-based, mice. The following applies: 5 μM, 24 h. As for the experimental part:
FIG. 9. GzmB content and IFNγ secretion are unaffected by Gli inhibition in cytotoxic CD4+ T cells. Cytotoxic CD4+ cells were generated from OT-II mice and treated with 5 μM GANT61 or carrier control on day 7 for 24 h prior to flow cytometric analysis of Granzyme B (GzmB) and IFNγ levels on day 8. (A) Representative flow cytometry plots in unstimulated (top panel) or restimulated CD4+ T cells (bottom panel). (B) Quantification of steady state GzmB levels and IFNγ levels upon restimulation. Data is from n=3 independent experiments.
as §3

Series [3] deals with RMA/S tumour cells. Put plainly: VITAL assay, murine NK cells with NK-sensitive RMA/S cells. The class given is cell-based. The conditions noted are these: 5 μM GANT61 vs carrier control. As for the experimental part:
as §1, §2

For a further series, the system named is P815 target cells. It counts as cell-based, human. On the procedure:
FIG. 15. GLI inhibitor GANT61 reduces tumour cell killing of human CD8+ cytotoxic T lymphocytes. PBMCs were isolated from Buffy Coats of healthy donors using SepMate PBMC Isolation Tubes. CD8+ T cells were isolated using negative selection (Miltenyi Biotec, CD8+ T Cell Isolation Kit) and plated with ImmunoCult™ Human CD3/CD28/CD2 T Cell Activator at 25 μl/mL in TexMACS cell culture media supplemented with 1001 U/mL human IL-2 and 100 U/ml Penicillin/Streptomycin. Human CTLs were incubated with Gli1/2 inhibitor GANT61 or EToH (carrier control) overnight and subsequently co-cultured with anti-CD3ε pulsed P815 target cells for 3 h at the indicated effector to target ratios and subjected to an LDH cytotoxicity assay. (A) Representative graph, (B) Quantification of N=3 donors normalised to killing of carrier treated cells at a 10:1 effector:target ratio. Error bars indicate SD. n=3 donors from 2 independent experiments. It is also known that Hh signalling in murine CD8+ T cells is not inducible via administration of extracellular Hh ligands (de la Roche et al. (2013)). Instead, Hh induction occurs via the modulation of L-type voltage-gated calcium (Cav) channels downstream of the T cell receptor. For example, Hanna et al. (2021) report that nifedipine-sensitive Cavs control Gli1 induction in naïve CD8+ T cells and CD8+ CTLs following TCR stimulation. […]

From patent US20250222028A1, “ENGINEERED IMMUNE CELL PLATFORM” (Cancer Research Technology Limited, priority 2022, published 2025) come the findings set out here.

With `CN(C)c1ccccc1CN1CCCN(Cc2ccccc2N(C)C)C1c1ccncc1` [GANT61], the “reduction in specific cell killing” value in series [1] stood at 50%. Also, in the series on K562 target cells, the “killing capacity of K562 target cells by gammadelta T cells” value is reported as “reduced killing capacity”. Besides, the “decrease in cell killing” value with RMA/S tumour cells [2] is around 15%. Further, in the series with NK cells, the GzmB content result was “unaffected” and the IFNγ secretion entry is reported as “unaffected”. Further, in the series with cytotoxic CD4+ T cells, the GzmB content result is listed as “unaffected” and the IFNγ secretion result is “unaffected”. For the same compound, in the series on RMA/S tumour cells [3], the “specific tumour cell killing” value is recorded as “greatly reduced”. Further, in the series with P815 target cells, the “tumour cell killing of human CD8+ cytotoxic lymphocytes” value is reported as “reduces”.
